The subject of the assay is NCI-H510 multicellular tumor spheroid growth, % test/control. Put plainly: Anticancer human tumor NCI-H510 cell line growth inhibition [Asc].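 For all read-outs here: spheroids exposed to agents for 7 days.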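 For viability, T/C: 100% = DMSO vehicle control wells.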 Particulars: for viability, T/C: stronger effect = lower value. In a few lines:
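Complex spheroids combining tumor cells with HUVEC endothelial cells and human MSCs, at 37 degrees C, 5% CO2; agents tested alone or combined, half-log dilutions from at or near clinical Cmax, or 10 microM if Cmax unknown.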

Where [1] appears, read: curve of first compound, second compound 0.01 µM.
[2] abbreviates: curve of first compound, second compound 0.0316 µM.
Where [3] appears, read: curve of first compound, second compound 0.1 µM.
[4] abbreviates: curve of first compound, second compound 0.316 µM.
[5] abbreviates: curve of first compound, second compound 1 µM.
The mark [6] stands for this setting: second compound 0.01 µM, first compound 0.0316 µM.
Setting [7] is: second compound 0.01 µM, first compound 0.1 µM.
[8] abbreviates: second compound 0.0316 µM, first compound 0.0316 µM.
Setting [9] is: second compound 0.0316 µM, first compound 0.1 µM.
Setting [10] is: second compound 0.1 µM, first compound 0.00316 µM.
The mark [11] stands for this setting: second compound 0.1 µM, first compound 0.01 µM.
[12] abbreviates: second compound 0.1 µM, first compound 0.0316 µM.
Where [13] appears, read: second compound 0.1 µM, first compound 0.1 µM.
Where [14] appears, read: second compound 0.316 µM, first compound 0.00316 µM.
[15] abbreviates: second compound 0.316 µM, first compound 0.01 µM.
[16] abbreviates: second compound 0.316 µM, first compound 0.0316 µM.
[17] abbreviates: second compound 0.316 µM, first compound 0.1 µM.
[18] abbreviates: second compound 1 µM, first compound 0.00316 µM.
[19] abbreviates: second compound 1 µM, first compound 0.01 µM.
The mark [20] stands for this setting: second compound 1 µM, first compound 0.0316 µM.
[21] abbreviates: second compound 1 µM, first compound 0.1 µM.
Where [22] appears, read: second compound 0.1 µM, first compound 0.316 µM.
The mark [23] stands for this setting: second compound 0.1 µM, first compound 1 µM.
[24] abbreviates: second compound 0.316 µM, first compound 0.316 µM.
Where [25] appears, read: second compound 0.316 µM, first compound 1 µM.
[26] abbreviates: second compound 1 µM, first compound 0.316 µM.
Where [27] appears, read: second compound 1 µM, first compound 1 µM.

Values joined by “and” are separate entries in the source; they are usually repeats but may differ in a detail not shown here. Equal entries are not always repeated.

Turning to `Cn1ncnc1[C@H]1c2n[nH]c(=O)c3cc(F)cc(c23)N[C@@H]1c1ccc(F)cc1`, the viability, T/C (as a rule, the result in the treated group divided by that in the control group, in per cent) reads like this: (compound 0.000316 µM) 106% and 114% (2×); (compound 0.001 µM) 98.2% and 93.5% and 70.4%; (compound 0.00316 µM) 80.9% and 92.1% and 86.5%; (compound 0.01 µM) 23.2% and 96.1% and 24.8%; (compound 0.0316 µM) 14.6% and 83.9% and 22.1%; (compound 0.1 µM) 12.7% and 99.4% and 18.4%.
For the molecule `NC1CCC(NC2CC2c2ccccc2)CC1` (stereo not given) + CNC(C)C(=O)NC1CN(S(=O)(=O)c2cccc(S(=O)(=O)N3CCC4CCC(C(=O)NC(c5ccccc5)c5ccccc5)N4C(=O)C(NC(=O)C(C)NC)C3)c2)CCC2CCC(C(=O)NC(c3ccccc3)c3ccccc3)N2C1=O, the half-inhibitory concentration (IC50) (usually the midpoint of a concentration-inhibition curve) runs as follows: under setting [1], over 0.1 µM; under setting [2], over 0.1 µM; under setting [3], over 0.1 µM; under setting [4], over 0.1 µM; under setting [5], over 0.1 µM. Also, the viability, T/C is, setting by setting: (second compound 0.01 µM, first compound 0.000316 µM) 85.6%; (second compound 0.01 µM, first compound 0.001 µM) 105%; (second compound 0.01 µM, first compound 0.00316 µM) 97.4%; (second compound 0.01 µM, first compound 0.01 µM) 90%; under setting [6], 105%; under setting [7], 94.3%. Further, the viability, T/C was 98.7% (second compound 0.0316 µM, first compound 0.000316 µM); 96.7% (second compound 0.0316 µM, first compound 0.001 µM); 92.3% (second compound 0.0316 µM, first compound 0.00316 µM); 91.6% (second compound 0.0316 µM, first compound 0.01 µM); 96.9% under setting [8]; 94.9% under setting [9]. Also, the viability, T/C is, setting by setting: (second compound 0.1 µM, first compound 0.000316 µM) 107%; (second compound 0.1 µM, first compound 0.001 µM) 97.4%; under setting [10], 91.2%; under setting [11], 89.8%; under setting [12], 96.9%; under setting [13], 97.7%. In addition, the viability, T/C by setting is: (second compound 0.316 µM, first compound 0.000316 µM) 99%; (second compound 0.316 µM, first compound 0.001 µM) 106%; under setting [14], 91%; under setting [15], 99.9%; under setting [16], 102%; under setting [17], 97.8%. In addition, the viability, T/C runs as follows: (second compound 1 µM, first compound 0.000316 µM) 114%; (second compound 1 µM, first compound 0.001 µM) 106%; under setting [18], 97.9%; under setting [19], 98.1%; under setting [20], 94.3%; under setting [21], 101%.
Consider `Cc1nc(N2CCC3(CC2)COC(C)C3N)c(CO)nc1Sc1ccnc(N)c1Cl` (stereo not given), for which the viability, T/C is 103% and 93.2% and 86.2% (compound 0.00949 µM); 101% and 121% and 91% (compound 0.03 µM); 103% and 109% and 98.7% (compound 0.0949 µM); 99% and 118% and 99.2% (compound 0.3 µM); 96.9% and 107% and 96.8% (compound 0.949 µM); 100% and 106% and 80.6% (compound 3 µM). Also, for the setting “curve of compound”, the IC50 is over 3 µM.
With `O=C(c1cc(Cc2n[nH]c(=O)c3ccccc23)ccc1F)N1CCN(C(=O)C2CC2)CC1` + CNC(C)C(=O)NC1CN(S(=O)(=O)c2cccc(S(=O)(=O)N3CCC4CCC(C(=O)NC(c5ccccc5)c5ccccc5)N4C(=O)C(NC(=O)C(C)NC)C3)c2)CCC2CCC(C(=O)NC(c3ccccc3)c3ccccc3)N2C1=O, the IC50 reads like this: under setting [1], 9.49 µM; under setting [2], 8.07 µM; under setting [3], 8.9 µM; under setting [4], 9.8 µM; under setting [5], over 10 µM. Further, the viability, T/C is 103% under setting [6]; 98.5% under setting [7]; 110% (second compound 0.01 µM, first compound 0.316 µM); 91.7% (second compound 0.01 µM, first compound 1 µM); 89.4% (second compound 0.01 µM, first compound 3.16 µM); 47.9% (second compound 0.01 µM, first compound 10 µM). For the same molecule, the viability, T/C by setting is: under setting [8], 99.8%; under setting [9], 101%; (second compound 0.0316 µM, first compound 0.316 µM) 96.2%; (second compound 0.0316 µM, first compound 1 µM) 109%; (second compound 0.0316 µM, first compound 3.16 µM) 95%; (second compound 0.0316 µM, first compound 10 µM) 39.7%. The viability, T/C is 90.3% under setting [12]; 89.2% under setting [13]; 83.2% under setting [22]; 114% under setting [23]; 91.8% (second compound 0.1 µM, first compound 3.16 µM); 45.3% (second compound 0.1 µM, first compound 10 µM). Besides, the viability, T/C reads like this: under setting [16], 97.8%; under setting [17], 107%; under setting [24], 117%; under setting [25], 87.5%; (second compound 0.316 µM, first compound 3.16 µM) 89.1%; (second compound 0.316 µM, first compound 10 µM) 48.9%. Also, the viability, T/C is 112% under setting [20]; 110% under setting [21]; 104% under setting [26]; 101% under setting [27]; 92.1% (second compound 1 µM, first compound 3.16 µM); 58% (second compound 1 µM, first compound 10 µM).
On to `O=C(c1ccc(F)c(F)c1Nc1ccc(I)cc1F)N1CC(O)([C@@H]2CCCCN2)C1` + Cc1c(S(C)(=O)=O)c(-c2cc(F)cc(N3CCN(c4ccc(NS(=O)(=O)c5ccc(NC(CCN6CCC(C(=O)OCCCP(=O)(O)O)CC6)CSc6ccccc6)c(S(=O)(=O)C(F)(F)F)c5)cc4)CC3)c2)c(-c2ccc(Cl)cc2)n1C(C)C, for which the IC50 under setting [3] was over 1 µM; the IC50 under setting [4] was over 1 µM; the IC50 under setting [5] is over 1 µM; the IC50 (curve of first compound, second compound 3.16 µM) was over 1 µM; the IC50 (curve of first compound, second compound 10 µM) was over 1 µM. Besides, the viability, T/C under setting [10] was 113%; the viability, T/C under setting [11] is 107%; the viability, T/C under setting [12] is 115%; the viability, T/C under setting [13] was 96.9%; the viability, T/C under setting [22] is 90%; the viability, T/C under setting [23] is 87.4%. For the same molecule, the viability, T/C was 124% under setting [14]; 104% under setting [15]; 113% under setting [16]; 88.7% under setting [17]; 58.7% under setting [24]; 83% under setting [25]. Moreover, the viability, T/C under setting [18] is 99.7%; the viability, T/C under setting [19] is 115%; the viability, T/C under setting [20] is 126%; the viability, T/C under setting [21] was 89.8%; the viability, T/C under setting [26] was 86.9%; the viability, T/C under setting [27] is 91.7%. In addition, the viability, T/C is 107% (second compound 3.16 µM, first compound 0.00316 µM); 88.1% (second compound 3.16 µM, first compound 0.01 µM); 108% (second compound 3.16 µM, first compound 0.0316 µM); 104% (second compound 3.16 µM, first compound 0.1 µM); 81.3% (second compound 3.16 µM, first compound 0.316 µM); 81.4% (second compound 3.16 µM, first compound 1 µM). The viability, T/C reads like this: (second compound 10 µM, first compound 0.00316 µM) 74.7%; (second compound 10 µM, first compound 0.01 µM) 105%; (second compound 10 µM, first compound 0.0316 µM) 96.1%; (second compound 10 µM, first compound 0.1 µM) 105%; (second compound 10 µM, first compound 0.316 µM) 78.3%; (second compound 10 µM, first compound 1 µM) 64.3%.
Consider `C=C(F)C(=O)N1CCN(c2nc(OCC3CCCN3C)nc3c2CCN(c2cccc4cccc(Cl)c24)C3)CC1CC#N` (stereo not given), for which the viability, T/C by setting is: (compound 0.0316 µM) 109% and 85.9% and 108%; (compound 0.1 µM) 87.2% and 84.2% and 92%; (compound 0.316 µM) 72.8% and 84.8% and 97.8%; (compound 1 µM) 67.5% and 68.6% and 102%; (compound 3.16 µM) 1.87% and 8.13% and 16.5%; (compound 10 µM) 0.2% and 0.21% and 0.25%. The IC50 (curve of compound) was 1.34 µM and 1.42 µM and 1.99 µM.

Values taken from PubChem BioAssay AID1963438 (Molecular Pharmacology Branch, DTP, NCI, 2024).
